Patent US6777435B1, “Crystals of an oxyiminoalkanoic acid derivative and their use as antidiabetics” (Takeda Chemical Industries, Ltd., priority 1999, dated 2004)

Legend:
Wistar fatty rats = assay: Hypoglycemic and hypolipidemic actions in rats; format: in vivo; details: 1 mg/kg/day orally for seven days, percentage reduction compared with non-treatment group
Description: Crystals of the test compound were suspended in an amount of 1 mg/5 ml in a 0.5% methyl cellulose solution and compulsorily administered orally at the dose of 1 mg/kg/day to Wistar fatty rats (27-30 weeks old; five rats in a group), a model of obesity and type 2 diabetes mellitus, for seven days successively. During that period, diet and water were given freely. Blood was sampled from tail vein and measurement of the components was carried out using serum. Glucose was quantified using L-type Wako Glu2 (Wako Pure Chemicals) while triglyceride was quantified using L-type Wako TG.H (Wako Pure Chemical). The value of treatment group is represented as percentage reduction compared with the non-treatmet group.

KKA^γ mice = assay: Hypoglycemic and hypolipidemic actions in mice; format: in vivo; details: 0.01% in powdery diet for four days, percentage reduction compared with non-treatment group
Description: Crystals of the test compound were mixed in a powdery diet (CE-2; Japan Clea) at a concentration of 0.01%, and freely given to KKA^γ mice (11 weeks old; five mice in a group), a model of obesity and type 2 diabetes mellitus, for four days. During that period, water was given freely. Blood was sampled from orbital venous plexus and measurement of the components was carried out using serum. Glucose was quantified using L-type Wako Glu2 (Wako Pure Chemicals) while triglyceride was quantified using Iatro-MA701 TG kit (Iatron Laboratories Inc.). The value of treatment group is represented as percentage reduction compared with the non-treatmet group.

SMILES	Hypoglycemic Action (%) (Wistar fatty rats; serum glucose)	Hypolipemic Action (%) (Wistar fatty rats; serum triglyceride)	Hypoglycemic Action (%) (KKA^γ mice; serum glucose)	Hypolipemic Action (%) (KKA^γ mice; serum triglyceride)
Cc1oc(-c2ccccc2)nc1COc1ccc(CO/N=C(\CCC(=O)O)c2ccccc2)cc1 [Crystals of Example 1, (E)-4-[4-(5-methyl-2-phenyl-4-oxazolylmethoxy)benzyloxyimino]-4-phenylbutyric acid]	60	85		
Cc1oc(-c2ccccc2)nc1COc1ccc(CO/N=C(\CCC(=O)O)c2ccccc2)cc1 [Crystals of Reference Example 4, (E)-4-[4-(5-methyl-2-phenyl-4-oxazolylmethoxy)benzyloxyimino]-4-phenylbutyric acid]			42	61
